Laboratory results published in patent US10350219B2, “Antimicrobial compositions and methods of making the same” (priority 2013, dated 2019).
One block for each molecule: values may come before it.

How the values were obtained:
[1] = Steam sterilization (thermal stability, discoloration); type: physicochemical; details: hydrogel
Procedure: (b) Steam Sterilization • One steam sterilization cycle was imposed on gel prototypes to evaluate their ability to withstand elevated temperatures. The gel samples contained in 15 ml or 50 ml PP tubes or other non-hydrogel prototypes (in sealed foil pouches) were examined post sterilization for any adverse temperature effect on its color, viscosity, texture, phase separation etc.
A majority of the hydrogel prototypes of the present disclosure were tested for their ability to withstand elevated temperatures simply by subjecting them to one steam sterilization cycle. The test samples experienced temperature rises from 20 C to 122 C over 15 min, followed by constant temperature of 122 C for 15 min and finally a cool down from 122 C to ˜40 C over 3 h. Thus, the test samples experienced nearly 3.5 h of hostile temperature condition.
“Steam sterilizable” or “heat stable” or “inert to heat” is defined as having no visible sign of discoloration (color change following exposure that will add shade of black, brown, yellow or purple) after one steam sterilization cycle (122 C for 15 min) that includes periods of warming up and final cool down to room temperature (<40 C).

[2] = Table Lamp Light Exposure Test (TLE), discoloration; type: physicochemical; details: gel with glycerol 10%, clay 4%, silver 0.054% weight; for Gel color after continuous light exposure: After 24 h: 60 W table lamp; for Gel color after continuous light exposure: Fresh: 60 W table lamp at 1 to 1.5 feet
Procedure: (a) Table Lamp Light Exposure Test (TLE) • The samples of the said compositions contained in either glass vials or 15 ml PP tubes (BD Falcon) were placed under a table lamp (turned on) at a distance of 12 to 15 inches for continuous exposure. The incandescent lamp wattage was 60 W. After the desired duration of exposure, the test samples were examined for visible discoloration by holding it against a white plain paper. Non-hydrogel samples were examined against the control samples protected from light.

[3] = tested on: rats; details: cited from earlier work
[4] = theor. silver content 110 ppm, ratio of cyanurate/silver ions 5
[5] = theor. silver content 220 ppm, ratio of cyanurate/silver ions 2.5

Molecule: O=c1[n-]c(=O)[nH]c(=O)[nH]1.O=c1[n-]c(=O)[nH]c(=O)[nH]1.[Ag+].[Na+] [Na[Ag(C3N3O3H2)2], Sodium silver cyanurate ligand complex Na[Ag(C3N3H2O3)2] or its hydrate]
Color after steam sterilization [1, 4]: No discoloration
Color before steam sterilization [1, 4]: Hazy to clear
Color after steam sterilization [1, 5]: No discoloration
Color before steam sterilization [1, 5]: Hazy to clear

Molecule: Silver Gluconate
Gel color after continuous light exposure: After 24 h [2]: Brown black

Molecule: CCC(=O)[O-].[Ag+] [Silver Propionate]
Gel color after continuous light exposure: After 24 h [2]: Brown black

Molecule: O=C(O)c1ccccc1 [benzoic acid]
LD50 [3]: 2530 mg/kg of body weight

Molecule: Silver Sorbate
Gel color after continuous light exposure: After 24 h [2]: Brown black

Molecule: O=C([O-])C(O)C(O)C(=O)O.[Ag+] (centres unmarked) [Silver Mono-tartrate]
Gel color after continuous light exposure: Fresh [2]: Hazy gel
Gel color after continuous light exposure: After 24 h [2]: Brown black

Molecule: O=C([O-])CO.[Ag+] [Silver Glycolate]
Gel color after continuous light exposure: After 24 h [2]: Brown grey

Molecule: Silver Benzene sulfonate
Gel color after continuous light exposure: Fresh [2]: Brown after 0.5 h
Gel color after continuous light exposure: After 24 h [2]: Brown black

Gel color after continuous light exposure: Fresh [2]: Yellow brown
Molecule: O=C1[N-]S(=O)(=O)c2ccccc21.[Ag+] [Silver Saccharinate]

Molecule: C=C(CC(=O)[O-])C(=O)[O-].[Ag+].[Ag+] [Silver Itaconate]
Gel color after continuous light exposure: After 24 h [2]: Brown black

Molecule: O=C([O-])/C=C\C(=O)O.[Ag+] [Silver Mono-maleate]
Gel color after continuous light exposure: Fresh [2]: Smooth hazy gel
Gel color after continuous light exposure: After 24 h [2]: Brown yellow

Molecule: O=C([O-])c1ccccc1.[Ag+] [Silver Benzoate]
Gel color after continuous light exposure: After 24 h [2]: Brown black

Molecule: O=c1[nH]c(=O)[nH]c(=O)[nH]1 [cyanuric acid]
LD50 [3]: 7700 mg/kg of body weight
lethal dose LD50 ([3]; internet source): 7.70 g/kg of body weight
